From patent publication US20130337461A1, “METHOD FOR DIAGNOSIS, MONITORING THE EFFICACY OF A THERAPY AND FOR DEVELOPMENT OF TREATMENT FOR MULTIPLE SCLEROSIS” (priority 2010, published 2013)

Tests used:
M03-13 cells [1] = assay: Differentiation of M03-13 cells with low doses of hydrogen peroxide: differentiation markers; type: cell-based, human
M03-13 cells [2] = assay: Differentiation of M03-13 cells with PMA: expression or localization of differentiation markers
[3] = 200 μM H2O2 for 4 days in complete medium, Western blotting
[4] = 100 nM PMA 30 min, cells pre-incubated 16 h in 0.2% FBS, Western blotting, vs not differentiated
[5] = 100 nM PMA 24 h, absence of serum, Western blotting

For hydrogen peroxide [H2O2], the “total MBP protein levels” value (M03-13 cells [1]; 200 μM H2O2 4d, flow cytometric analysis) was “increases”, the “translocation of olig-2 from nucleus to cytosol” value (M03-13 cells [1]; 200 μM H2O2, 30 min and 24 h, confocal microscopy) was “a cytoplasmic staining of the cells became evident already after 30 min” and the α-SMA signal (M03-13 cells [1]; 200 μM H2O2 complete medium, 1 and 4 days, confocal microscopy, vs not differentiated cells) was “decreased”. The Olig-2 fluorescent signal (M03-13 cells [1]; 200 μM H2O2 complete medium, 1 day and 4 days, confocal microscopy, vs not differentiated cells) was “progressively increased”, the P-CREB levels (M03-13 cells [1]; [3]) was “induces” and the P-ERK1/2 levels (M03-13 cells [1]; [3]) was “not affected”. For the same compound, the α-SMA levels (M03-13 cells [1]; [3]) was “decreases”, the “cytosolic MBP levels” value (M03-13 cells [1]; 200 μM hydrogen peroxide 4 days, complete medium, cell fractionation and Western blotting) was “decreases” and the “differentiation of oligodendrocyte precursors to differentiated cells” value (M03-13 cells [1]; low doses of hydrogen peroxide, overall conclusion) was “induces the differentiation”.

In the case of `CCCCCCCCCCCCCC(=O)O[C@@H]1[C@@H](C)[C@@]2(O)[C@@H](C=C(CO)C[C@]3(O)C(=O)C(C)=C[C@@H]23)[C@@H]2C(C)(C)[C@]12OC(C)=O` [PMA, 12-O-Tetradecanoylphorbol-13-acetate], the P-CREB levels (M03-13 cells [2]; [4]) is reported as “significantly increases”, the P-ERK1/2 levels (M03-13 cells [2]; [4]) is reported as “significantly increases” and the Olig-2 levels (M03-13 cells [2]; [5]) is reported as “increased”. For the same compound, the P-CREB levels (M03-13 cells [2]; [5]) was “increased”, the P-ERK1/2 levels (M03-13 cells [2]; [5]) was “increased” and the α-SMA levels (M03-13 cells [2]; [5]) was “decrease”. For the same compound, the “translocation of olig-2 from nucleus to cytosol” value (M03-13 cells [2]; 100 nM PMA 24 h, medium without serum, confocal microscopy) was “a cytoplasmic staining of the cells became evident”, the α-SMA signal (M03-13 cells [2]; 100 nM PMA serum-free medium, 1 and 4 days, confocal microscopy, vs not differentiated cells) was “decreased” and the Olig-2 fluorescent signal (M03-13 cells [2]; 100 nM PMA serum-free medium, 1 day and 4 days, confocal microscopy, vs not differentiated cells) was “progressively increased”. For the same compound, the MBP signal (M03-13 cells [2]; 100 nM PMA serum-free medium, 1 day or 4 days, confocal microscopy, vs not differentiated cells) was “increased”, the “mAchR M1 level” value (M03-13 cells [2]; 100 nM PMA, absence of serum, 4 days, Western blotting) was “increased” and the “cytosolic MBP levels” value (M03-13 cells [2]; 100 nM PMA, absence of serum, 4 days, cell fractionation and Western blotting) was “decreases”. The MBP protein levels (M03-13 cells [2]; 100 nM PMA, medium without serum, 24 h and 4 days, flow cytometric analysis) was “time-dependent increase”.

`CC(=O)N[C@@H](CS)C(=O)O` [NAC, N-Acetyl-Cysteine] was tested, and the “reversal of hydrogen peroxide effects on α-SMA, P-CREB levels” value (M03-13 cells [1]; 200 μM H2O2 in presence of NAC 10 mM or AEBSF 40 μM, Western blotting) was “reverted hydrogen peroxide effects”.
